Measured values published in ChEMBL document CHEMBL1201862, “PubChem BioAssay data set” (2004).
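Dose response: 5 concentrations. Exposure: 48 h. Format: 96-well plates. Endpoint: linear interpolation; highest concentration if not reached. GI50 marks 50% less growth.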 Active and inactive are the calls of the source. Cut-off read from the data, not from the text of the source: active = GI50 up to about 1.1 µM and inactive = higher.

Legend:
Test in all cases: growth of human tumour cells (NCI), 48 h
786-0 = test system: 786-0
A549 = test system: A549
ACHN = test system: ACHN
BT-549 = test system: BT-549
CAKI-1 = test system: CAKI-1
CCRF-CEM = test system: CCRF-CEM
COLO 205 = test system: COLO 205
DU-145 = test system: DU-145
EKVX = test system: EKVX
HCC 2998 = test system: HCC 2998
HCT-116 = test system: HCT-116
HCT-15 = test system: HCT-15
HL-60 = test system: HL-60
HOP-62 = test system: HOP-62
HOP-92 = test system: HOP-92
HT-29 = test system: HT-29
Hs-578T = test system: Hs-578T
IGROV-1 = test system: IGROV-1
KM12 = test system: KM12
LOX IMVI = test system: LOX IMVI
M14 = test system: M14
MCF7 = test system: MCF7
MDA-MB-231 = test system: MDA-MB-231
MDA-MB-435 = test system: MDA-MB-435
MDA-N = test system: MDA-N
MOLT-4 = test system: MOLT-4
Malme-3M = test system: Malme-3M
NCI-H226 = test system: NCI-H226
NCI-H23 = test system: NCI-H23
NCI-H522 = test system: NCI-H522
NCI/ADR-RES = test system: NCI/ADR-RES
OVCAR-3 = test system: OVCAR-3
OVCAR-4 = test system: OVCAR-4
OVCAR-5 = test system: OVCAR-5
OVCAR-8 = test system: OVCAR-8
PC-3 = test system: PC-3
RPMI-8226 = test system: RPMI-8226
RXF 393 = test system: RXF 393
SF-268 = test system: SF-268
SF-295 = test system: SF-295
SF-539 = test system: SF-539
SK-MEL-28 = test system: SK-MEL-28
SK-MEL-2 = test system: SK-MEL-2
SK-OV-3 = test system: SK-OV-3
SN12C = test system: SN12C
SNB-19 = test system: SNB-19
SNB-75 = test system: SNB-75
SR = test system: SR
SW-620 = test system: SW-620
T47D = test system: T47D
TK-10 = test system: TK-10
U-251 = test system: U-251
UACC-257 = test system: UACC-257
UACC-62 = test system: UACC-62
UO-31 = test system: UO-31
A498 = test system: A498
K562 = test system: K562
NCI-H460 = test system: NCI-H460
SK-MEL-5 = test system: SK-MEL-5

Cc1ccc(/C=C2\N=C(N3CCOCC3)NC2=O)cc1
GI50 (786-0): > 100 µM (inactive) | GI50 (A549): > 100 µM (inactive) | GI50 (ACHN): > 100 µM (inactive) | GI50 (BT-549): > 100 µM (inactive) | GI50 (CAKI-1): > 100 µM (inactive) | GI50 (CCRF-CEM): > 100 µM (inactive) | GI50 (COLO 205): > 100 µM (inactive) | GI50 (DU-145): > 100 µM (inactive) | GI50 (EKVX): > 100 µM (inactive) | GI50 (HCC 2998): > 100 µM (inactive) | GI50 (HCT-116): > 100 µM (inactive) | GI50 (HCT-15): > 100 µM | GI50 (HL-60): > 100 µM (inactive) | GI50 (HOP-62): 77.6 µM (inactive) | GI50 (HOP-92): > 100 µM (inactive) | GI50 (HT-29): > 100 µM (inactive) | GI50 (Hs-578T): > 100 µM (inactive) | GI50 (IGROV-1): > 100 µM (inactive) | GI50 (KM12): > 100 µM (inactive) | GI50 (LOX IMVI): > 100 µM (inactive) | GI50 (M14): > 100 µM (inactive) | GI50 (MCF7): > 100 µM (inactive) | GI50 (MDA-MB-231): > 100 µM (inactive) | GI50 (MDA-MB-435): > 100 µM (inactive) | GI50 (MDA-N): > 100 µM (inactive) | GI50 (MOLT-4): > 100 µM (inactive) | GI50 (Malme-3M): > 100 µM (inactive) | GI50 (NCI-H226): > 100 µM (inactive) | GI50 (NCI-H23): > 100 µM (inactive) | GI50 (NCI-H522): > 100 µM (inactive) | GI50 (NCI/ADR-RES): > 100 µM (inactive) | GI50 (OVCAR-3): > 100 µM (inactive) | GI50 (OVCAR-4): > 100 µM (inactive) | GI50 (OVCAR-5): > 100 µM (inactive) | GI50 (OVCAR-8): > 100 µM (inactive) | GI50 (PC-3): > 100 µM (inactive) | GI50 (RPMI-8226): > 100 µM (inactive) | GI50 (RXF 393): > 100 µM (inactive) | GI50 (SF-268): > 100 µM (inactive) | GI50 (SF-295): > 100 µM (inactive) | GI50 (SF-539): > 100 µM (inactive) | GI50 (SK-MEL-28): > 100 µM (inactive) | GI50 (SK-MEL-2): > 100 µM (inactive) | GI50 (SK-OV-3): > 100 µM (inactive) | GI50 (SN12C): > 100 µM (inactive) | GI50 (SNB-19): > 100 µM (inactive) | GI50 (SNB-75): > 100 µM (inactive) | GI50 (SR): > 100 µM (inactive) | GI50 (SW-620): > 100 µM (inactive) | GI50 (T47D): > 100 µM (inactive) | GI50 (TK-10): > 100 µM (inactive) | GI50 (U-251): > 100 µM (inactive) | GI50 (UACC-257): > 100 µM (inactive) | GI50 (UACC-62): > 100 µM (inactive) | GI50 (UO-31): > 100 µM (inactive)

N#CC(c1ccccc1)(c1ccccc1)[C@@H](c1ccccc1)[C@H](Cc1ccccc1)NS(=O)(=O)c1ccccc1
GI50 (786-0): > 100 µM (inactive) | GI50 (A498): > 100 µM (inactive) | GI50 (A549): > 100 µM (inactive) | GI50 (ACHN): > 100 µM (inactive) | GI50 (BT-549): > 100 µM (inactive) | GI50 (CAKI-1): > 100 µM (inactive) | GI50 (CCRF-CEM): > 100 µM (inactive) | GI50 (COLO 205): > 100 µM (inactive) | GI50 (DU-145): > 100 µM (inactive) | GI50 (EKVX): > 100 µM (inactive) | GI50 (HCC 2998): > 100 µM (inactive) | GI50 (HCT-116): > 100 µM (inactive) | GI50 (HCT-15): > 100 µM | GI50 (HL-60): 4.17 µM (inactive) | GI50 (HOP-62): > 100 µM (inactive) | GI50 (HT-29): > 100 µM (inactive) | GI50 (Hs-578T): > 100 µM (inactive) | GI50 (IGROV-1): > 100 µM (inactive) | GI50 (K562): > 100 µM (inactive) | GI50 (KM12): > 100 µM (inactive) | GI50 (LOX IMVI): > 100 µM (inactive) | GI50 (M14): > 100 µM (inactive) | GI50 (MCF7): > 100 µM (inactive) | GI50 (MDA-MB-231): > 100 µM (inactive) | GI50 (MDA-MB-435): > 100 µM (inactive) | GI50 (MDA-N): > 100 µM (inactive) | GI50 (MOLT-4): 15.7 µM (inactive) | GI50 (Malme-3M): > 100 µM (inactive) | GI50 (NCI-H23): > 100 µM (inactive) | GI50 (NCI-H460): 66.7 µM (inactive) | GI50 (NCI-H522): > 100 µM (inactive) | GI50 (NCI/ADR-RES): > 100 µM (inactive) | GI50 (OVCAR-3): > 100 µM (inactive) | GI50 (OVCAR-4): > 100 µM (inactive) | GI50 (OVCAR-5): > 100 µM (inactive) | GI50 (OVCAR-8): > 100 µM (inactive) | GI50 (PC-3): 46.7 µM (inactive) | GI50 (RPMI-8226): 10.3 µM (inactive) | GI50 (RXF 393): 84.7 µM (inactive) | GI50 (SF-268): > 100 µM (inactive) | GI50 (SF-295): > 100 µM (inactive) | GI50 (SF-539): > 100 µM (inactive) | GI50 (SK-MEL-28): > 100 µM (inactive) | GI50 (SK-MEL-2): > 100 µM (inactive) | GI50 (SK-MEL-5): 96.2 µM (inactive) | GI50 (SK-OV-3): > 100 µM (inactive) | GI50 (SN12C): > 100 µM (inactive) | GI50 (SNB-19): > 100 µM (inactive) | GI50 (SNB-75): > 100 µM (inactive) | GI50 (SR): 83.9 µM (inactive) | GI50 (SW-620): > 100 µM (inactive) | GI50 (T47D): > 100 µM (inactive) | GI50 (TK-10): > 100 µM (inactive) | GI50 (U-251): > 100 µM (inactive) | GI50 (UACC-257): > 100 µM (inactive) | GI50 (UACC-62): > 100 µM (inactive) | GI50 (UO-31): > 100 µM (inactive)
